From ChEMBL document CHEMBL1135800, “Carbonic anhydrase inhibitors: anticonvulsant sulfonamides incorporating valproyl and other lipophilic moieties” (J Med Chem, 2002)

Key:
[1] = biological target: T1, Carbonic anhydrase 4 (Bos taurus, UniProt Q95323)
T1 sequence (Q95323 whole entry): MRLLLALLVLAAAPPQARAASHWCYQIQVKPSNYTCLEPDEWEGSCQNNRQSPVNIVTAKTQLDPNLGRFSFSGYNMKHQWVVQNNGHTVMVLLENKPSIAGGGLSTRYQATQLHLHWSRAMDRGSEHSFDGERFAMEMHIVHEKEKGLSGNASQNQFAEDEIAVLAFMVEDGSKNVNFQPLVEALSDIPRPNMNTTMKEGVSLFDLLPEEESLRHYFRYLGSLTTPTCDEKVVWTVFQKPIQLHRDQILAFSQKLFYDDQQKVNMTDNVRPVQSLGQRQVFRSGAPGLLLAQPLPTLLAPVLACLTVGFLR
Description: Inhibitory effect on bovine Carbonic anhydrase IV

[2] = biological target: Carbonic anhydrase 2 (Homo sapiens, UniProt P00918)
Description: Inhibitory effect on human Carbonic anhydrase II

[3] = system: Mus musculus; assay: Anticonvulsant activity in mice by MES test at 3.0 hr following intraperitoneal injection of 30 mg/kg dose.; format: functional
[4] = system: Mus musculus; assay: Anticonvulsant activity in mice by MES test at 0.5 hr following intraperitoneal injection of 30 mg/kg dose; format: functional
[5] = biological target: Carbonic anhydrase 1 (Homo sapiens, UniProt P00915)
Description: Inhibitory effect on human carbonic anhydrase I

[6] = system: Mus musculus; assay: Anticonvulsant activity in mice by MES test at 0.5 hr following intraperitoneal injection of 10 mg/kg dose.; format: functional
[7] = system: Mus musculus; assay: Anticonvulsant activity in mice by MES test at 3.0 hr following intraperitoneal injection of 10 mg/kg dose.; format: functional
[8] = system: Mus musculus; assay: Anticonvulsant activity in mice by MES test at 0.5 h following intraperitoneal injection of 30 mg/kg dose.; format: functional
[9] = system: Mus musculus; assay: Anticonvulsant activity in mice by MES test at 3.0 hr following intraperitoneal injection of 10 mg/kg dose; format: functional
[10] = system: Mus musculus; assay: Anticonvulsant activity in mice by MES test at 0.5 hr following intraperitoneal injection of 10 mg/kg dose; format: functional
[11] = system: Mus musculus; assay: Anticonvulsant activity in mice by MES test at 3.0 h following intraperitoneal injection of 30 mg/kg dose; format: functional
[12] = system: Mus musculus; assay: Anticonvulsant activity in mice by MES test at 3.0 hr following intraperitoneal injection of 30 mg/kg dose; format: functional
[13] = species on record: Mus musculus; assay: MES test: number of mice treated / total number of mice at 2.0 h; format: functional
[14] = species on record: Mus musculus; assay: MES test: number of mice treated / total number of mice 4.0 h; format: functional
[15] = Activity in MES test with six to eight OFI male mice for each time at 30 mg/kg dose at 4.0 h; format: functional, Mus musculus
[16] = species on record: Mus musculus; assay: MES test: number of mice treated / total number of mice at 1.0 h; format: functional
[17] = Activity in MES test with six to eight OFI male mice for each time at 30 mg/kg dose at 2.0 h; format: functional, Mus musculus
[18] = Activity in MES test with six to eight OFI male mice for each time at 30 mg/kg dose at 3.0 h; format: functional, Mus musculus
[19] = species on record: Mus musculus; assay: MES test: number of mice treated / total number of mice 6.0 h; format: functional
[20] = Activity in MES test with six to eight OFI male mice for each time at 30 mg/kg dose at 0.5 h; format: functional, Mus musculus
[21] = species on record: Mus musculus; assay: MES test: number of mice treated / total number of mice at 3.0 h; format: functional
[22] = Activity in MES test with six to eight OFI male mice for each time at 30 mg/kg dose at 1.0 h; format: functional, Mus musculus
[23] = Activity in MES test with six to eight OFI male mice for each time at 30 mg/kg dose at 6.0 h; format: functional, Mus musculus
[24] = species on record: Mus musculus; assay: MES test: number of mice treated / total number of mice at 0.5 h; format: functional

Sequence of Carbonic anhydrase 1 (P00915 whole entry): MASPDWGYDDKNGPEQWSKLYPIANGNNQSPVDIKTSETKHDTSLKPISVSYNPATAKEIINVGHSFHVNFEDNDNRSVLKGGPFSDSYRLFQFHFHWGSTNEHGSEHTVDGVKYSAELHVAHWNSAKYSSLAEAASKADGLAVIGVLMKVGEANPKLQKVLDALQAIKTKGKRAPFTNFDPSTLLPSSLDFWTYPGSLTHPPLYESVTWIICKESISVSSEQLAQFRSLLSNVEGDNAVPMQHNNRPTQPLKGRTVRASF

Compound	Ki [1] [nM]	Ki [2] [nM]	Protected mice [3] [%]	Ki [5] [nM]	further results
COc1cc(C(=O)Nc2nnc(S(N)(=O)=O)s2)cc(OC)c1OC	51	10	67	900	Protected mice [4]: 25%
CCCC(CCC)C(=O)OCCOc1ccc2nc(S(N)(=O)=O)sc2c1	13	7		50	
CCCC(CCC)C(=O)Nc1ccc(S(N)(=O)=O)cc1Cl	125	50		950	
CC(C)(C)C(=O)Nc1nnc(S(N)(=O)=O)s1	46		100	110	Protected mice [6]: 44%; Protected mice [7]: 87%; Protected mice [4]: 75%
CCCC(CCC)C(=O)Nc1c(S(N)(=O)=O)cc(S(N)(=O)=O)c(Cl)c1Cl	155	26		970	
CCCC(CCC)C(=O)Nc1ccc(S(N)(=O)=O)cc1Br	49	36		600	
NS(=O)(=O)c1nnc(NS(=O)(=O)c2ccc(NC(=O)[C@@H]3C4C=CC(C4)C3C(=O)O)cc2)s1 (stereo partly drawn)	4	1.5	33	5.5	Protected mice [8]: 25%
CC(C)(C)OC(=O)Nc1nnc(S(N)(=O)=O)s1	130	9	60	460	Protected mice [8]: 75%
CCCC(CCC)C(=O)NNc1ccc(S(N)(=O)=O)cc1	950	300		35600	
CCCC(CCC)C(=O)Nc1cccc(S(N)(=O)=O)c1	740	221		19000	
Cc1ccc(S(=O)(=O)NC(=O)Nc2nnc(S(N)(=O)=O)s2)cc1	12	4	33	3	Protected mice [8]: 8%
CCCC(CCC)C(=O)Nc1ccc2nc(S(N)(=O)=O)sc2c1	16	7		62	
CC1(C)O[C@@H]2[C@@H](CO[C@@]3(COS(N)(=O)=O)OC(C)(C)O[C@@H]23)O1 [TOPIRAMATE]	54				Protected mice [4]: 100%; Protected mice [9]: 50%; Protected mice [10]: 62%; Protected mice [11]: 83%
CCCC(CCC)C(=O)NCCc1ccc(S(N)(=O)=O)cc1	200	84		3500	
CCCC(CCC)C(=O)OCCc1ccc(S(N)(=O)=O)cc1	313	844		1300	
CCCC(CCC)C(=O)OCc1ccc(S(N)(=O)=O)cc1	333	115		1500	

Compound	Ki [1] [nM]	Ki [2] [nM]	Protected mice [3] [%]	Ki [5] [nM]	further results
NS(=O)(=O)c1nnc(NC(=O)C23C[C@H]4C[C@@H](C2)C[C@@H](C3)C4)s1	65		96	850	Protected mice [6]: 25%; Protected mice [7]: 93%; Protected mice [8]: 83%
CCCC(CCC)C(=O)Oc1ccc2nc(S(N)(=O)=O)sc2c1	15	7		50	
CCCC(CCC)C(=O)Nc1ccc(S(N)(=O)=O)cc1I	85	43		550	
CCCC(CCC)C(=O)Nc1ccc(S(N)(=O)=O)cc1F	110	45		1000	
CCCC(CCC)C(=O)NCCC(=O)Nc1nnc(S(N)(=O)=O)s1	76	9		360	
NS(=O)(=O)c1nnc(NS(=O)(=O)Cc2ccccc2)s1	6	5	38	7	Protected mice [8]: 67%
CCCC(CCC)C(=O)Nc1cc(Cl)c(S(N)(=O)=O)cc1S(N)(=O)=O	133	70		800	
CC(=O)/N=c1/sc(S(N)(=O)=O)nn1C [METHAZOLAMIDE]			100		Protected mice [6]: 75%; Protected mice [7]: 88%; Protected mice [8]: 83%
NS(=O)(=O)c1nnc(NC(=O)CCNS(=O)(=O)c2ccc(I)cc2)s1	120	1.2		260	Protected mice [12]: 25%; Protected mice [8]: 33%
CCCC(CCC)C(=O)NCc1ccc(S(N)(=O)=O)cc1	210	96		3700	
NS(=O)(=O)c1nnc(NC(=O)c2ccccc2)s1	21		25	38	Protected mice [8]: 83%
CCCC(CCC)C(=O)Nc1ccccc1S(N)(=O)=O	950	255		23000	
CCCC(CCC)C(=O)Nc1nnc(S(N)(=O)=O)s1	25	6		50	No. of mice [13]: 8; No. of mice [14]: 4; Protected mice [15]: 50%; No. of mice [16]: 6.5; Protected mice [17]: 100%; Protected mice [18]: 93%; No. of mice [19]: 5; Protected mice [12]: 93%; Protected mice [20]: 96%; Protected mice [4]: 96%; Protected mice [9]: 100%; No. of mice [21]: 7; Protected mice [22]: 81%; Protected mice [23]: 63%; Protected mice [10]: 25%; No. of mice [24]: 7.5
Cc1ccc(S(=O)(=O)Nc2nnc(S(N)(=O)=O)s2)cc1	3	4	75	5	Protected mice [6]: 12%; Protected mice [7]: 62%; Protected mice [4]: 92%
CCCC(CCC)C(=O)Nc1ccc(S(N)(=O)=O)cc1	630	240		22500	
CCCC(CCC)C(=O)/N=c1/sc(S(N)(=O)=O)nn1C	42	10		70	
